Target: T1, ADRA1A (Homo sapiens, UniProt P35348)
T1 construct: purchased Promega (in-house HiBiT-GPCR construct library, NanoBRET)
T1 sequence (P35348 1-466): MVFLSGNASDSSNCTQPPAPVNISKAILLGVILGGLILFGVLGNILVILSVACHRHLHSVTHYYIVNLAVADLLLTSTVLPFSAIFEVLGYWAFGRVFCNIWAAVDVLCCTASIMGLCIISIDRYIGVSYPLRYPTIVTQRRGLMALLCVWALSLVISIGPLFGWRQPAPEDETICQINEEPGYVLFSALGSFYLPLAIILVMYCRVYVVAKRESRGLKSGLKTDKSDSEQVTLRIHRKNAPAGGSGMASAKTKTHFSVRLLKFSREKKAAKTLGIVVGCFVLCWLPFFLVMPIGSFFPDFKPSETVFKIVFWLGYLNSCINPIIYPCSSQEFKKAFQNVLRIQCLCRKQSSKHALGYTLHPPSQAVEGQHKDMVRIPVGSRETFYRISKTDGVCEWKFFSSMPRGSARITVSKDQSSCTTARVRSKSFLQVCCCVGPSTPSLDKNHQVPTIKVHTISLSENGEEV
Assay: NanoBRET screen HiBiT-ADRA1A in HEK293
Assay type: binding
Experimental: Each tracer candidate was screened across the entire library of HiBiT-GPCR constructs using NanoBRET as the detection modality. As depicted in Figure 4A, the specificity of interactions was evaluated through decrease in BRET due to competitive displacement of a bound tracer by excess parental compound. Each tracer was analyzed for binding to each HiBiT-GPCR fusion in the absence and in the presence of competing parental compound. Briefly, HEK293 cells were transfected with HiBiT-GPCR constructs diluted into promoterless DNA to reduce expression and maximize translocation to the cell surface. Each tracer candidate was then screened at concentrations of 1 μM and 0.1 μM across cells expressing these fusions. Cells were treated for 1.5 h with tracer either alone or in the presence of 20 μM competing parental compound (i.e., control). BRET was measured upon addition of purified LgBiT and subsequent complementation with HiBiT genetically fused to a GPCR. The specificity of interactions was assessed through a decrease in BRET signal due to competitive displacement of the bound tracer. To further gauge the robustness of these interactions, the fold response over the control (i.e., BRETtracer/BRETcontrol) was calculated. We chose a 1.5-fold response, which translates to ≥7-fold signal over noise as the minimal threshold required to score an interaction as positive.
HiBiT-GPCR DNA constructs were diluted in 10 mM Tris pH 8 to a final concentration of 0.01 μg/μL, arrayed in 96-well plates and stored at −20 °C. For transfection, HEK293 cells were suspended in Opti-MEM (without phenol red) supplemented with 2% fetal bovine serum (Seradigm) and 100 units/mL penicillin–streptomycin (Gibco) at a final concentration of 220,000 cells/mL and dispensed into white 96-well plates at 90 μL/well. Subsequent transfections and screens were carried using an Agilent Bravo Automated Liquid Handling Platform. First, the 96-well HiBiT DNA arrays were diluted 25-fold in Opti-MEM (without serum or phenol red) to a final concentration of 0.0004 μg/μL and 20 μL of the diluted DNAs were transferred into new 96-well plates. Next, promoterless carrier DNA (1 μg/μL) was diluted 25-fold (0.04 μg/μL) and then dispensed into the diluted arrays at 20 μL/well. Following brief mixing, Viafect transfection reagent (Promega) diluted 16-fold into Opti-MEM was dispensed into the plates at 40 μL/well. After mixing by pipetting, plates were incubated for 10 min on the pipetting station deck. The DNA-transfection reagent complexes were then added to plates containing cells. To facilitate the screen, 10 μL of DNA-transfection reagent complexes were added in duplicates to the top 4 and bottom 4 rows, resulting in two identical 48-well arrays per plate. Plates with transfected cells were incubated for 18–20 h at 37 °C/5% CO2. A screen of each tracer across the entire library using two different concentrations requires duplicate plates of transfected cells. Depending on the number of tracers being screened, transfections can be scaled up using the same ratios. The next day, for each tracer, four 20× screening solutions in tracer dilution buffer (Promega) were prepared: two duplicates at final concentration of 20 μM and two duplicates at a final concentration of 2 μM. […] The four resulting solutions were diluted 4-fold in Opti-MEM without serum or phenol red to generate 5× solutions (5 µM and 0.5 µM tracer +/− 100 μM competing compound). To screen the library, a BioTek MultiFlo FX liquid dispenser was used to dispense 22.5 µL of tracer solution to the top 4 rows and 22.5 µL tracer + competing compound solution to the 4 bottom rows. Plates were briefly mixed on an orbital shaker and incubated for 1.5 h at room temperature. […] Plates were briefly mixed on an orbital shaker and incubated for 15 min to allow complementation.

Structure (SMILES)	NanoBRET Fold Response (ADRA1A, tracer 0.1μM)	NanoBRET Fold Response (ADRA1A, tracer 1μM)	also measured
Cc1nc2n(c(=O)c1CCN1CCC(c3noc4cc(F)ccc34)CC1)CCCC2OC(=O)NCCOCCOCCOCCOCCNC(=O)CCc1ccc2n1[B-](F)(F)[N+]1=C(c3ccc[nH]3)C=CC1=C2 (stereo not drawn) [Risperidone-2-NB590]	4.86	3.45	
CCOC(=O)c1cc(C#N)c(N2CCC(C(=O)NS(=O)(=O)Cc3ccccc3/C=C/C(=O)NCCNC(=O)CCc3ccc4n3[B-](F)(F)[N+]3=C(c5ccc[nH]5)C=CC3=C4)CC2)nc1C [AZD1283-1-NB590]			NanoBRET Fold Response (ADRA1A, 0.1μM): 1.06; NanoBRET Fold Response (ADRA1A, 1μM): 1.06
Cc1cc2c(s1)Nc1ccccc1N=C2N1CCN(CCCNC(=O)CCOCCOCCOCCOCCNC(=O)CCc2ccc3n2[B-](F)(F)[N+]2=C(c4ccc[nH]4)C=CC2=C3)CC1 [Olanzapine-a-2-NB590]	2.86	3.58	
COc1ccccc1N1CCN(CCCCN2C(=O)c3ccc(CNC(=O)CCOCCNC(=O)c4ccc(CNC(=O)CCc5ccc6n5[B-](F)(F)[N+]5=C(c7ccc[nH]7)C=CC5=C6)cc4)cc3C2=O)CC1 [NAN-190-3-NB590]	3.94	3.91	
CC(C)N(CC[C@H](c1ccccc1)c1cc(CCNC(=O)CCOCCOCCOCCOCCNC(=O)CCc2ccc3n2[B-](F)(F)[N+]2=C(c4ccc[nH]4)C=CC2=C3)ccc1O)C(C)C [Tolterodine-2-NB590]	0.97	0.98	
CN(C)CCC=C1c2ccccc2CCc2ccc(C(=O)NCCNC(=O)CCOCCOCCOCCOCCNC(=O)CCc3ccc4n3[B-](F)(F)[N+]3=C(c5ccc[nH]5)C=CC3=C4)cc21 [Amitriptyline-b-2-NB590]			NanoBRET Fold Response (tracer at 0.1μM, listed as amitriptyline-b-2-NB590): 4.73; NanoBRET Fold Response (tracer at 1μM, listed as amitriptyline-b-2-NB590): 2.23
O=C(CCOCCOCCOCCOCCNC(=O)CCc1ccc2n1[B-](F)(F)[N+]1=C(c3ccc[nH]3)C=CC1=C2)NCCCN1CCN(C2=Nc3ccccc3Oc3ccc(Cl)cc32)CC1 [Loxapine-a-2-NB590]	3.76	3.42	
CN(C)CCC=C1c2ccccc2CCc2ccc(C(=O)NCCNC(=O)CCOCCOCCOCCOCCNC(=O)CCc3ccc4n3[B-](F)(F)[N+]3=C(c5ccc[nH]5)C=CC3=C4)cc21 [Amitriptyline-a-2-NB590]			NanoBRET Fold Response (tracer at 0.1μM): 1.38; NanoBRET Fold Response (tracer at 1μM): 2.14
O=C(CCc1ccc2n1[B-](F)(F)[N+]1=C(c3ccc[nH]3)C=CC1=C2)NCCOCCOCCNC(=O)OCCOCCN1CCN(C2=Nc3ccccc3Sc3ccccc32)CC1 [Quetiapine-a-2-NB590]	3.24	3.51	
COc1ccccc1N1CCN(CCCCN2C(=O)c3ccc(CNC(=O)CCOCCOCCOCCOCCNC(=O)CCc4ccc5n4[B-](F)(F)[N+]4=C(c6ccc[nH]6)C=CC4=C5)cc3C2=O)CC1 [NAN-190-2-NB590]	5.18	4.33	
N#CN/C(=N\CCNC(=O)c1ccc(N)cc1)NCCCOc1cccc(CN2CCCCC2)c1 [Aminopotentidine (unmodified)]			NanoBRET Fold Response (ADRA1A, other tracers/Aminopotentidine (unmodified), 0.1μM): 1.03; NanoBRET Fold Response (ADRA1A, other tracers/Aminopotentidine (unmodified), 1μM): 1.07
COc1ccc2[nH]c(-c3ccc(CNC(=O)CCOCCOCCOCCOCCNC(=O)CCc4ccc5n4[B-](F)(F)[N+]4=C(c6ccc[nH]6)C=CC4=C5)cc3)c(CCNC(C)=O)c2n1 [AzomelatoninICO9-2-NB590]			NanoBRET Fold Response (0.1μM tracer): 1.06; NanoBRET Fold Response (1μM tracer): 0.94
O=C(CCOCCOCCOCCOCCNC(=O)CCc1ccc2n1[B-](F)(F)[N+]1=C(c3ccc[nH]3)C=CC1=C2)NCCCN1CCN(C2=Nc3cc(Cl)ccc3Nc3ccccc32)CC1 [Clozapine-a-2-NB590]			NanoBRET Fold Response (ADRA1A, 0.1μM tracer): 3.90; NanoBRET Fold Response (ADRA1A, 1μM tracer): 3.21
CCCn1c(=O)c2[nH]c(-c3ccc(OCC(=O)NCCNC(=O)CCOCCNC(=O)c4ccc(CNC(=O)CCc5ccc6n5[B-](F)(F)[N+]5=C(c7ccc[nH]7)C=CC5=C6)cc4)cc3)nc2n(CCC)c1=O [XAC-3-NB590]	1.10	0.94	
O=C(CCc1ccc2n1[B-](F)(F)[N+]1=C(c3ccc[nH]3)C=CC1=C2)NCc1ccc(C(=O)NCCOCCOCCNCC(O)COc2cccc3ccccc23)cc1 (stereo not drawn) [Propranolol-3-NB590]			NanoBRET Fold Response (ADRA1A, 0.1μM): 1.53; NanoBRET Fold Response (ADRA1A, 1μM): 1.47
O=C(CCc1ccc2n1[B-](F)(F)[N+]1=C(c3ccc[nH]3)C=CC1=C2)NCc1ccc(C(=O)NCCOCCC(=O)N[C@@H]2CC[C@@]3(O)[C@H]4Cc5ccc(O)c6c5[C@@]3(CCN4CC3CC3)[C@H]2O6)cc1 [Naltrexone-3-NB590]	1.10	0.96	
CN(CCC=C1c2ccccc2CCc2ccccc21)C(=O)CCOCCOCCOCCOCCNC(=O)CCc1ccc2n1[B-](F)(F)[N+]1=C(c3ccc[nH]3)C=CC1=C2 [Amitriptyline-e-2-NB590]			NanoBRET Fold Response (tracer at 1μM): 1.32
N#CN=C(NCCCOc1cccc(CN2CCCCC2)c1)NCCNC(=O)CCOCCOCCOCCOCCNC(=O)CCc1ccc2n1[B-](F)(F)[N+]1=C(c3ccc[nH]3)C=CC1=C2 [Aminopotentidine-2-NB590]	1.05	1.00	
COc1ccc2c(n1)c(CCNC(C)=O)cn2CCNC(=O)CCc1ccc2n1[B-](F)(F)[N+]1=C(c3ccc[nH]3)C=CC1=C2 [Azamelatonin-1-NB590]			NanoBRET Fold Response (0.1μM tracer): 0.96; NanoBRET Fold Response (1μM tracer): 0.95
CC(C)N(CC[C@H](c1ccccc1)c1cc(CCNC(=O)c2ccc(CNC(=O)CCc3ccc4n3[B-](F)(F)[N+]3=C(c5ccc[nH]5)C=CC3=C4)cc2)ccc1O)C(C)C [Tolterodine-BZ-NB590]	1.56	2.17	

— PMC8151276, “An Integrated Approach toward NanoBRET Tracers for Analysis of GPCR Ligand Engagement” (Molecules, 2021)
